Assay results: paper PMC3674995, “Safety, Pharmacokinetic, and Efficacy Studies of Oral DB868 in a First Stage Vervet Monkey Model of Human African Trypanosomiasis” (PLoS Neglected Tropical Diseases, 2013)
Several values for one entry are separate records, joined by “and”; a condition that tells them apart may be missing. Identical values can stand only once. Entries after “also recorded” stand apart in the source; their conditions may differ.

Experiments:
T. b. brucei GVR35 = tested on: T. b. brucei GVR35; design: method as in PMID 19620327; settings: oral administration; cited from earlier work
[1] = tested on: T. b. rhodesiense STIB900; design: method as in PMID 19620327; settings: oral administration; cited from earlier work
[2] = Pharmacokinetics in infected vervet monkeys (first stage HAT); format: in vivo, vervet monkey; settings: monkey, plasma, po, prodrug in plasma post-LDD, all oral DB868 regimens; infected; 0.04 days = 1 h; read-out: Tmax (majority, 4/6 monkeys) (converted)
[3] = design: method as in earlier work; settings: cited from earlier work
[4] = Metabolism of DB868 in vervet monkey liver microsomes; format: in vitro ADME; settings: 10 µM, 0.5 mg/mL microsomes, 1 mM NADPH, pH 7.4, up to 120 min
Method: DB868 metabolism was studied in male vervet monkey liver microsomes (custom-prepared by XenoTech, LLC, Lenexa, KS, USA) by adapting a previously published method. Briefly, incubation mixtures contained 10 µM DB868, 0.5 mg/mL monkey liver microsomes, and 3.3 mM MgCl2 in 100 mM phosphate buffer (pH 7.4). Reactions were initiated by the addition of NADPH (1 mM final concentration). Control incubations were carried out without NADPH, DB868, or liver microsomes. Aliquots (100 µL) of the reaction mixtures were removed at 0, 5, 10, 15, 30, 60 and 120 min and mixed with 100 µL of ice-cold acetonitrile. After centrifugation to pellet precipitated proteins, the supernatants were analyzed by HPLC/UV and fluorescence using the method previously described for pafuramidine (DB289) and furamidine (DB75). Metabolite identification was performed by comparing retention times to those of synthetic standards for M1 (DB1679), M2 (DB840), M3 (DB1712), and DB829. DB868 and its metabolites were quantified using a calibration curve (0.1–10 µM) generated using synthetic standards.

[5] = tested on: T. b. rhodesiense KETRI 2537; assay: Efficacy in first stage HAT vervet monkey model; format: in vivo; settings: for time to clear parasites from the blood: after the 1st drug dose
Method: Monkeys that were deemed as treatment failures/relapses or developed severe adverse clinical signs as defined in the protocol (e.g., inability or reluctance to perch, less than ¼ of normal daily feed intake for 2–3 consecutive days) were immediately withdrawn from the study and humanely euthanized for post-mortem examination. These monkeys were euthanized by intravenous administration of 20% (w/v) pentobarbitone sodium solution (150 mg/kg body weight; Euthatal; Rhône-Mérieux, United Kingdom).

[6] = Safety (overt toxicity, haematology, clinical chemistry) in uninfected vervet monkeys; settings: for peak plasma urea relative to baseline: p<0.05; for highest post-treatment mean ALT: plasma
[7] = Pharmacokinetics in uninfected vervet monkeys; settings: uninfected; for concentration at 24 h / concentration at 4 h: both, monkey, po; for concentration at 24 h / concentration at 4 h / C24 h: plasma; for concentration at 24 h: C24 h; for concentration at 4 h: geometric mean C4 h, n = 4
[8] = tested on: T. b. brucei s427 trypanosomes; design: method as in PMID 21402852; settings: 3.2 µM; cited from earlier work
[9] = oral 3 mg/kg×7 days, monkeys 638, 643
[10] = oral 10 mg/kg/day×10 days, 1–2 days post-LDD
[11] = after final oral dose of DB868 30 mg/kg×10 days, individual monkeys, 30 mg/kg

For CONC(=N)c1ccc(-c2ccc(-c3ccc(C(=N)NOC)cn3)o2)nc1 [DB868, 2,5-bis[5-(N-methoxyamidino)-2-pyridyl]furan], the curative (T. b. brucei GVR35) is listed as 100%, the curative [1] is listed as 100% and the Tmax [2] is listed as 57.6 min. The “increase in ALT compared to untreated rats” value ([3]; female Sprague-Dawley rats, oral 25 mg/kg/day for 3 weeks) was “less than 2 fold”, the “effect on KIM-1” value ([3]; oral 12 mg/kg/day×28 days, entire 4-month observation period) was “no effect” and the metabolites formed [4] was “metabolized in male vervet monkey liver microsomes to M1 (DB1679), M2 (DB840), M3 (DB1712), M4, and the active compound DB829”. For the same compound, the “day of dosing on which parasitologically negative” value ([5]; oral 3 mg/kg/day for 7 days, monkey 638) was 6 day, the “time at which parasitologically negative” value ([5]; oral 3 mg/kg/day for 7 days, monkey 643) was 3 days post-LDD and the “Trypanosomes blood/CSF at EoT” value ([5]; oral 3 mg/kg×7 days from 7 DPI, monkeys 638, 643) was “Neg”. For the same compound, the Final efficacy assesment [5, 9] was “Cured”, the “Provisional efficacy at 100 days post-treatment” value [5, 9] was “Cured” and the “time at which consistently parasitologically negative” value ([5]; oral 10 mg/kg/day for 7 days, monkey 675) was 7 days post-LDD. For the same compound, the “day of treatment on which parasitologically negative” value ([5]; oral 10 mg/kg/day for 7 days, monkey 691) was 6 day, the “Trypanosomes blood/CSF at EoT” value ([5]; oral 10 mg/kg×7 days from 7 DPI, monkeys 675, 691) was “Neg” and the “Provisional efficacy at 100 days post-treatment” value ([5]; oral 10 mg/kg×7 days, monkeys 675, 691) was “Cured”. The “day of drug administration by which trypanosomes were undetectable in blood” value ([5]; oral 20 mg/kg/day for 5 days, all three monkeys) was ≤ 4 days, the “Trypanosomes blood/CSF at EoT” value ([5]; oral 20 mg/kg×5 days from 7 DPI, monkeys 585, 658, 686, Neg = negative, Pos = positive) was “Neg” and the “time to clear parasites from the blood” value ([5]; oral, '30 mg/kg group') was 2 to 5 days. For the same compound, the “time to clearance of trypanosomes from peripheral blood” value ([5]; oral, after the 1st dose, depending on the dose) was 2 to 14 days, the “cure of infected monkeys” value ([5]; oral, all three regimens (3 mg/kg/day×7, 10 mg/kg/day×7, 20 mg/kg/day×5 days), treatment from 7 DPI) was “All infected monkeys were cured” and the “dose required to achieve complete cure” value ([5]; oral, for 7 days, first stage HAT monkey model) was 3 mg/kg. For the same compound, the “time to clear parasites from the blood” value ([5]; oral, lower dose regimen groups (3 and 10 mg/kg)) was 6 to 14 days, the “curative cumulative dose, fold lower than the maximum tolerated dose” value ([5]; oral, 21 mg/kg vs 300 mg/kg cumulative) was 14 fold and the “transient increase of plasma urea concentrations” value ([6]; both dose groups, 1–2 days after the last drug dose) was 2–3 fold. The adverse clinical signs ([6]; oral 10 mg/kg/day for 10 days, uninfected, n = 4) was “did not exhibit any adverse clinical signs”, the “BUN equivalent of peak mean urea” value [6, 10] was 35.9 mg/dL and the mean creatinine concentration [6, 10] was 72.3 µmol/L. For the same compound, the “mean creatinine concentration (equivalent)” value [6, 10] was 0.8 mg/dL, the “peak mean urea concentration” value [6, 10] was 12.8 mmol/L and the “peak plasma urea relative to baseline” value [6, 10] was 2.1 fold. The “maximum decline of mean body weight from baseline” value ([6]; oral 10 mg/kg/day×10 days, baseline 3.2 kg±0.5) was 6.2%, the “highest post-treatment mean ALT relative to second baseline sample” value ([6]; oral 10 mg/kg/day×10 days, p = 0.71) was 2.8 fold and the “highest post-treatment mean ALT” value ([6]; oral 10 mg/kg/day×10 days) was 31.3 IU/L. For the same compound, the overt toxicity ([6]; oral 30 mg/kg/day for 10 days (cumulative 300 mg/kg), uninfected, two of four monkeys: excess mucous in stool, transient inappetance) was “mild signs of toxicity; also recorded: No significant overt toxicity”, the “peak plasma urea relative to baseline” value ([6]; oral 30 mg/kg/day×10 days, 1–2 days post-LDD) was 2.7 fold and the “maximum decline of mean body weight from baseline” value ([6]; oral 30 mg/kg/day×10 days, baseline 3.1 kg±0.3) was 6.5%. The “mean white blood cell count, transient increase over baseline post-LDD” value ([6]; oral 30 mg/kg/day×10 days, p = 0.05, returned to baseline after 24 h, judged not drug-related) was 1.5 fold, the “highest post-treatment mean ALT relative to second baseline sample” value ([6]; oral 30 mg/kg/day×10 days, p = 0.37) was 1.3 fold and the “highest post-treatment mean ALT” value ([6]; oral 30 mg/kg/day×10 days) was 20.5 IU/L. For the same compound, the “post-dosing variations of mean plasma creatinine” value ([6]; oral 10 or 30 mg/kg/day×10 days, not statistically significant (p>0.05)) was “minimal”, the “mean AST and total and direct bilirubin levels versus baseline” value ([6]; oral 10 or 30 mg/kg/day×10 days, p>0.05) was “not statistically different from baseline values” and the “gastrointestinal toxicity (stool, faecal occult blood tests)” value ([6]; oral 10 or 30 mg/kg/day×10 days, uninfected) was “no notable gastrointestinal toxicity occurred”. The overall tolerability ([6]; two oral regimens, 10 and 30 mg/kg/day for 10 days, uninfected) was “well tolerated”, the “haematological parameters versus baseline” value ([6]; two treatment groups, 10 and 30 mg/kg/day×10 days, uninfected) was “did not vary significantly from baseline” and the “AUC0-∞” value [7, 11] was 200 nmol·days/L and 540 nmol·days/L and 260 nmol·days/L and 180 nmol·days/L. The AUClast [7, 11] was 190 nmol·days/L and 530 nmol·days/L and 210 nmol·days/L and 170 nmol·days/L, the “t1/2 (terminal elimination half-life)” value [7, 11] was 0.4 day and 1 day (2×) and 1.3 day and the concentration at 24 h ([7]; 10 mg/kg, 24 h after final oral dose of DB868 10 mg/kg×10 days, individual monkeys, BLQ = below limit of quantitation) was 6 nM. The concentration at 4 h ([7]; 10 mg/kg/day, oral DB868 10 mg/kg/day×10 days) was 89 nM, the concentration at 24 h ([7]; 30 mg/kg, 24 h after final oral dose of DB868 30 mg/kg×10 days, individual monkeys) was 66 nM and the concentration at 4 h ([7]; 30 mg/kg/day, oral DB868 30 mg/kg/day×10 days) was 466 nM. For the same compound, the “time for plasma concentration to decline below the limit of detection” value ([7]; oral DB868 10 mg/kg/day×10 days) was “less than 1 day post-LDD”, the “time for plasma concentration to decline below the limit of detection” value ([7]; oral DB868 30 mg/kg/day×10 days) was 1–2 days post-LDD and the “geometric mean C4 h, 30 mg/kg group relative to 10 mg/kg group” value ([7]; oral DB868×10 days) was 5.2 fold. For the same compound, the C4 h ([7]; plasma concentration at 4 h after final (10th) oral dose of DB868 10 mg/kg×10 days, individual monkeys 643, 659, 675, 677, 10 mg/kg) was 50 nM and 130 nM and 39 nM and 250 nM, the C4 h ([7]; plasma concentration at 4 h after final (10th) oral dose of DB868 30 mg/kg×10 days, individual monkeys 546, 567, 668, 679, 30 mg/kg) was 330 nM and 1600 nM and 280 nM and 320 nM and the C24 h ([7]; 24 h after final oral dose of DB868 10 mg/kg×10 days, individual monkeys, BLQ = below limit of quantitation, 10 mg/kg) was “BLQ”. The C24 h ([7]; 24 h after final oral dose of DB868 30 mg/kg×10 days, individual monkeys, 30 mg/kg) was 38 nM and 47 nM and 35 nM.
With N=C(N)c1ccc(OCCCCCOc2ccc(C(=N)N)cc2)cc1 [Pentamidine, reference compound] the “Trypanosomes blood/CSF at EoT” value ([5]; intramuscular 4 mg/kg×7 days from 7 DPI, monkeys 651, 541, 672) was “Pos and Neg”, the Final efficacy assesment ([5]; intramuscular 4 mg/kg×7 days, monkeys 651, 541, 672) was “Not cured; also recorded: Cured” and the “time to clearance of trypanosomes from peripheral blood” value ([5]; monkey, in vivo, im, 4 mg/kg) was 2 days.
In the case of N=C(N)c1ccc(-c2ccc(-c3ccc(C(=N)N)cc3)o2)cc1 [furamidine, 2,5-bis(4-amidinophenyl)furan, reference compound], the “exposure required to kill trypanosomes in culture” value [8] is listed as 1 h.
